Data on one compound can be found in PMC11590367, “Characterization of novel small molecule inhibitors of estrogen receptor-activation function 2 (ER-AF2)” (Breast Cancer Research : BCR, 2024).

The test system of one test is MDA-MB-231 cells. Kind of test: PrestoBlue viability assay, MDA-MB-231. In kind it is cell-based. Particulars: dose response 50 to 0.01 µM, 1 nM E2. How it is done: (§1) T47D, MCF7, TamR3, and MDA-MB-231 cells were starved for 72 h and then seeded into black clear-bottom 96-well plates (Corning Life Sciences Cat#3904) at 20,000 cells/well (T47D, MCF7, TamR3) or 5,000 cells/well (MDA-MB-231). […] 20 µl of PrestoBlue Cell Viability Reagent (Thermo Fisher A13262) was added to each well and incubated at 37 °C for 1 h. Fluorescence intensity was measured using the TECAN F500 plate reader with emission and excitation wavelengths of […], respectively.

For another test, the system named is TamR3 spheroids. Kind of test: Viability assay in 3D spheroids, TamR3. In kind it is cell-based. Particulars: 1:2 dilution from 50 µM, 1 nM E2; read-out: IC50 on growth (area) of TamR3 spheroids.
Test [1] has as its system ER transcriptional activity in T47D-KBluc cells. Kind of test: Luciferase transcriptional assay. In kind it is cell-based. Particulars: ER transcription, luciferase reporter, 1 nM E2, 24 h treatment, ± SD of 3 biological replicates. The method, then: T47D-KBluc cells or PC3m-luc cells were starved for 72 h and then seeded into 96-well plates at 20,000 or 5,000 cells/well, respectively. […] One day post-treatment, the media was removed, and cells were lysed with 65 µl of 1x passive lysis buffer (Promega #E1910). Following two freeze-thaw cycles, 20 µl of lysate were transferred to a white, 96-well flat bottom plate (Corning Life Sciences Cat#3912). 50 µl of luciferase reagent (Promega. Luciferase Assay System E1500) was added to each well, and luminescence was measured using the TECAN M200 Pro plate reader. E2 (1 nM), 4-hydroxytamoxifen (OHT) (4 nM), and DMSO (0.2%) were used as controls for this assay. […] E2 alone represented 100% transcriptional activation, while the 0.2% DMSO control represented 0% transcriptional activity. OHT was used as a positive control for an active compound.
On the technique in general: In a reporter assay the amount or activity of a reporter protein is the signal.

The target in test [2] is T1, GR (ARR3tk-luc) in PC3 cells (Homo sapiens, UniProt P04150).
T1 construct: expressed in transfected cells; host or cells: PC3 cells
T1 sequence (P04150 whole entry): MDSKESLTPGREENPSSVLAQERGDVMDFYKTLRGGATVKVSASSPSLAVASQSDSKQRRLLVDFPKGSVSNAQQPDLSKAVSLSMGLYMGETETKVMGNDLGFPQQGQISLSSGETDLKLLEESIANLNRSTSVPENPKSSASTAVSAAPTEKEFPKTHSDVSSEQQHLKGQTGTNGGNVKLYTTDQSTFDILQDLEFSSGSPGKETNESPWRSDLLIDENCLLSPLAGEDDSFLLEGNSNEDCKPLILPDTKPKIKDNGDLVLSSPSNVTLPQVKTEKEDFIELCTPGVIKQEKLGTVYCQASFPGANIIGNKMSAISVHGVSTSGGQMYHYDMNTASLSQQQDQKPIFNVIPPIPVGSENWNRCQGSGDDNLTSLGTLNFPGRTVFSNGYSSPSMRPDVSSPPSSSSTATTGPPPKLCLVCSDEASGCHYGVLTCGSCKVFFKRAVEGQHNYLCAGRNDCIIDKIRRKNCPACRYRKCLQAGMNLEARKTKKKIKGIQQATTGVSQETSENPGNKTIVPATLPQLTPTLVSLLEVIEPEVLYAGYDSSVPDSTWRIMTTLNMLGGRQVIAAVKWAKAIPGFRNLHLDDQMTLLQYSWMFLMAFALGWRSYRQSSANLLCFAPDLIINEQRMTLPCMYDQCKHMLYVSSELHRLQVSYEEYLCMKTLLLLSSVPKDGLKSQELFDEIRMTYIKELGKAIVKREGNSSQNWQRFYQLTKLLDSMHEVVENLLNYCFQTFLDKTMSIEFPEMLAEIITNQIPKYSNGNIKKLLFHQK
Kind of test: Nuclear receptor luciferase transcriptional assay, GR. In kind it is cell-based. Particulars: 1 or 5 µM, 1 nM Dexamethasone. How it is done:
(§2) PC3 cells (androgen receptor (AR)-, glucocorticoid receptor (GR)[…], progesterone receptor (PR)-, ER-) were starved for 72 h then seeded into a 96-well plate at a density of 5,000 cells/well. 24 h later, cells were transfected with either ER, AR, GR, or PR and a luciferase plasmid (ERE-luc for ER and ARR3tk-luc for AR, GR, and PR). 24 h post-transfection, cells were simultaneously stimulated with 1 nM E2 for ER, 0.1 nM R1881 for AR, 1 nM Dexamethasone for GR, or 1 nM Levonorgestrel for PR, and treated with 1 or 5 µM of VPC-260724 24 h post-treatment, cells were lysed with 50 µl of passive lysis buffer (Promega #E1910). 20 µl of lysate was transferred to a white flat-bottom 96-well plate (Corning Life Sciences Cat#3912). Luminescence readings were obtained using the TECAN M200 Pro plate reader following the addition of 50 µl of luciferase reagent (Promega Luciferase Assay System E1500).

A further test concerns TamR3 cells. Kind of test: PrestoBlue viability assay, TamR3. The format is cell-based. Particulars: 1 nM E2, 72 h treatment, ± SD of 3 biological replicates. How it is done:
as §1

Test [3] addresses T2, recombinant ER-LBD (residues 298–554) (Homo sapiens, UniProt P03372).
T2 construct: The ER-LBD (residues 298–554) was cloned into pET28a bacterial expression plasmid; His-tag (N); made in house; host or cells: E. coli BL21-DE3 (with pRARE)
Put plainly: Microscale thermophoresis (MST) direct binding. The note with it: averaged from three independent assays, 20 µM E2 in buffer, read-out: Kd (binding affinity to ER-LBD). How it is done:
The ER-LBD (residues 298–554) was cloned into pET28a bacterial expression plasmid with an N-terminal His-tag. pET28a-His-ER and pRARE were transformed into E. coli (BL21-DE3). Bacteria were grown at 37 [drawing 1] C overnight, and then diluted 1:20 the following day in LB media and grown at 37 [drawing 2] C until the OD600 reached 0.5. Protein expression was induced with 1 mM IPTG, and 50 µM E2 was added to the media. Cells were then grown for 5 h at 25 °C. Bacterial pellets were collected by centrifugation at 13,000 rpm for 7 min. Pellets were resuspended in lysis buffer (25 mM Tris, pH 8.4, 150 mM NaCl, 20 µM E2, 1 mM DTT, 0.1 mM PMSF, cOmplete protease inhibitor (Roche)) then sonicated and centrifuged to obtain the soluble extracts. ER-LBD was purified using affinity chromatography with Ni-NTA agarose resin. The presence of the ER-LBD in eluted fractions was confirmed by SDS-PAGE and validated by mass spectrometry. The eluted protein was further purified by size exclusion chromatography (s75), and fractions containing the ER-LBD protein were pooled and concentrated using Amicon Ultra centrifugal filters (3 K MWCO).
MST was used to validate the direct binding and measure the binding affinities between the lead compounds and the recombinant ER-LBD. […]

For test [4], the target named is T3, PR (ARR3tk-luc) in PC3 cells (Homo sapiens, UniProt P06401).
T3 construct: expressed in transfected cells; host or cells: PC3 cells
T3 sequence (P06401 whole entry): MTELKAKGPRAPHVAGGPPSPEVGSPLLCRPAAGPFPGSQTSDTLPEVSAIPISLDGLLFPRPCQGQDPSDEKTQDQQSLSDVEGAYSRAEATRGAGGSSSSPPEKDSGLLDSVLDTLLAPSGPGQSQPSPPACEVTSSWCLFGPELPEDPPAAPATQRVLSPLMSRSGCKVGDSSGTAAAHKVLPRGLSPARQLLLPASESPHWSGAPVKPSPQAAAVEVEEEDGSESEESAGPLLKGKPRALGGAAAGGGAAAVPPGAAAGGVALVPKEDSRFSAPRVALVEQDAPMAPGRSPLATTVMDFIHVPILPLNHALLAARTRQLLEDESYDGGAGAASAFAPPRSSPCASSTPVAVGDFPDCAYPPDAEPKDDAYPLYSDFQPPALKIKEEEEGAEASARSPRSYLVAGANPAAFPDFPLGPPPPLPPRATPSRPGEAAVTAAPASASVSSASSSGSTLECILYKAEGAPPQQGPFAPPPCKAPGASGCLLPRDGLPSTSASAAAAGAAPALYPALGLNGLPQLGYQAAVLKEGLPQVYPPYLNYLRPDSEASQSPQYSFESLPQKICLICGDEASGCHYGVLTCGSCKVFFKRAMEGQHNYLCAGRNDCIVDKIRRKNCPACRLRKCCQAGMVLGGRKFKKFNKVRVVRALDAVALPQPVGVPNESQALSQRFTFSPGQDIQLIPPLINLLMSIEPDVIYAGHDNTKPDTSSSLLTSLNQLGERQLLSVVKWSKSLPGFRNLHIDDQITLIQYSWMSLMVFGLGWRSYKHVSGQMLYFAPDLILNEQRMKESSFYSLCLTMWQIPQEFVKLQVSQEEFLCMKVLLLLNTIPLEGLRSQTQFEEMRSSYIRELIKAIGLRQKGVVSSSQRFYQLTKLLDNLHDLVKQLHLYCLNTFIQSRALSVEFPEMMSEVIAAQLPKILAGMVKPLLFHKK
Kind of test: Nuclear receptor luciferase transcriptional assay, PR. In kind it is cell-based. Particulars: 1 or 5 µM, 1 nM Levonorgestrel. The method, then:
as §2

For a further test, the system named is T47D cells. Put plainly: PrestoBlue viability assay, T47D. In kind it is cell-based. Particulars: 1 nM E2, 72 h treatment, ± SD of 3 biological replicates. How it is done:
as §1

Entries after “also recorded” stand apart in the source; their conditions may differ.

T2 sequence (P03372 298-554): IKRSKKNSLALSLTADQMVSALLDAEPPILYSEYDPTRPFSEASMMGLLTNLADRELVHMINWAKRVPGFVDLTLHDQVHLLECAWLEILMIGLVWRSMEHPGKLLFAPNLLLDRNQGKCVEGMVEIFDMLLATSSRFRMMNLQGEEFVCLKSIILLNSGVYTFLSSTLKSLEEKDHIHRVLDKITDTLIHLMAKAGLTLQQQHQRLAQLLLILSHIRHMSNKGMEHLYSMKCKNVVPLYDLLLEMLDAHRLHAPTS

The IC50 is the point on the concentration scale where inhibition reaches its midpoint. Broadly, the Kd is the concentration at which binding is half-saturated. Regarding `Cc1cccn2c(CNCc3cccc(N(C)C)n3)cnc12` [VPC-260724], the “Effect on viability of ER-negative MDA-MB-231 cells” value in the test with MDA-MB-231 cells is recorded as “minimal impact; also recorded: did not affect the viability”. Moreover, the IC50 in the test with TamR3 spheroids was determined as 27 ± 3.2 µM; in test [1] (24 h), 5.7 µM; in test [1], 5.75 ± 1.13 µM; in the test with TamR3 cells, 28.9 ± 4.55 µM; in the test with T47D cells it was 7.42 ± 2.12 µM; in the test with T47D cells (Homo sapiens, T47D, 72 h), 7.4 µM. In addition, the “Transcriptional activity of GR” value in test [2] is “did not significantly impact”. The Kd in test [3] is 85.2 ± 32.7 µM. Besides, the “Transcriptional activity of PR” value in test [4] is given as “did not significantly impact”.
